# Results published in patent US20250241901A1, “ACTIVATION OF MNRR1 / CHCHD2 AS A THERAPEUTIC TARGET FOR MITOCHONDRIA ASSOCIATED DISORDERS” (Wayne State University, priority 2024, published 2025).
# Key:
# MNRR1 = test: MNRR1-luciferase reporter assay in HTR cells; assay type: cell-based; conditions: Homo sapiens; HTR8 cells, 24 h, relative to vehicle (DMSO); read-out: half-maximal effective concentration (EC50), activation of MNRR1 reporter
# Description: FIGS. 1A-1D. Nitazoxanide's anti-inflammatory effects are via transcriptional activation of MNRR1. (FIG. 1A) Results of a screen of ˜2400 FDA-approved drugs and natural compounds identified to transcriptionally activate (>1), inhibit (<1), or not affect (=1) MNRR1. Each circle represents one drug and the MNRR1 activator (nitazoxanide (N)) has been highlighted in green. (FIG. 1B) Equal numbers of HTR cells overexpressing the MNRR1-luciferase reporter were plated on a 96 well plate and treated with increasing amounts of nitazoxanide or vehicle (DMSO) for 24 h. EC50 was calculated using the activation of MNRR1 reporter relative to vehicle treated cells using the Quest Graph^TM EC50 Calculator. (FIG. 1C) TNF transcript levels were measured in human placental cells. Actin was used as a housekeeping gene for normalization. […]
# Transfections and luciferase reporter assays: HTR cells were transfected with the indicated plasmids, using TransFast transfection reagent (Promega, Madison, WI, USA) according to the manufacturer's protocol as previously described (Purandare et al., iScience, 25: 105342, 2022). […] EC50 was calculated by using the Quest Graph™ EC50 Calculator (AAT Bioquest, Inc., on the World Wide Web at aatbio.com/tools/ec50-calculator).
# [1] = system: MELAS patient fibroblasts; test: Mitophagy and mitochondrial biogenesis markers in MELAS patient fibroblasts (immunoblot); assay type: cell-based, human; conditions: fibroblasts from three MELAS patients, 10 μM, 48 h
# Description: FIGS. 8A-8D: MNRR1 activation using tizoxanide enhances mitochondrial function, mitophagy, and protects from LPS-induced inflammation in MELAS patient fibroblasts. FIG. 8A: Equal amounts of lysates from MELAS patient fibroblast (MF 1, 2, or 3) lysates treated with vehicle (DMSO) or tizoxanide (10 μM) for 48 h were separated on an SDS-PAGE gel and probed for LC3B, PGC1a, MNRR1, MTCO2, TOM20, and phospho-ubiquitin (S65) levels. GAPDH orTubulin was probed as a loading control. FIG. 8B: Oxygen consumption measured from MELAS patient fibroblasts treated with vehicle (DMSO) or tizoxanide (10 μM) for 48 h (n=4 biological replicates, mean±SE). FIG. 8C: Mitochondrial ATP rate measured in MELAS patient fibroblasts treated with vehicle (DMSO) or tizoxanide (10 μM) for 48 h (n=4 biological replicates, mean±SE). […]
# Immunoblotting: Immunoblotting was performed as described previously. […] The clear supernatants were transferred to new tubes and quantified using the Bradford reagent with BSA as standard (BioRad, Hercules. CA). […] For detection after immunoblotting, the SuperSignal™ West Pico PLUS substrate (ThermoFisher, Waltham, MA) was used to generate chemiluminescence signal, which was detected with X-Ray film (RadTech, Vassar, MI).
# [2] = system: MELAS patient fibroblasts; test: Oxygen consumption and mitochondrial ATP rate in MELAS patient fibroblasts; assay type: cell-based, human; conditions: 10 μM, 48 h
# Description: FIGS. 8A-8D: MNRR1 activation using tizoxanide enhances mitochondrial function, mitophagy, and protects from LPS-induced inflammation in MELAS patient fibroblasts. FIG. 8A: Equal amounts of lysates from MELAS patient fibroblast (MF 1, 2, or 3) lysates treated with vehicle (DMSO) or tizoxanide (10 μM) for 48 h were separated on an SDS-PAGE gel and probed for LC3B, PGC1a, MNRR1, MTCO2, TOM20, and phospho-ubiquitin (S65) levels. GAPDH orTubulin was probed as a loading control. FIG. 8B: Oxygen consumption measured from MELAS patient fibroblasts treated with vehicle (DMSO) or tizoxanide (10 μM) for 48 h (n=4 biological replicates, mean±SE). FIG. 8C: Mitochondrial ATP rate measured in MELAS patient fibroblasts treated with vehicle (DMSO) or tizoxanide (10 μM) for 48 h (n=4 biological replicates, mean±SE). FIG. 8D: Heatmap representation of ROS and TNFα transcript levels from MELAS patient fibroblasts treated with vehicle (DMSO), LPS (DMSO+500 ng/mL LPS), or LPS plus tizoxanide (10 μM tizoxanide+500 ng/mL LPS) for 24 h (n=4 biological replicates). […]
# Intact cellular oxygen consumption and measurement of ATP: Cellular oxygen consumption was measured with a Seahorse XFe24 Bioanalyzer (Agilent). Cells were plated at a concentration of 3.5×10^4 per well a day prior to treatment and basal oxygen consumption was measured 48 h after treatments, as described. […]
SMILES,EC50 (MNRR1),"mitochondrial biogenesis (PGC1α, MTCO2, TOM20 levels) [1]",mitophagy (LCB and pSer-65 ubiquitin levels) [1],OCR [2],mitochondrial ATP levels [2]
"CC(=O)Oc1ccccc1C(=O)Nc1ncc([N+](=O)[O-])s1 [nitazoxanide, Nitazoxanide]",115 nM,–,–,–,–
"O=C(Nc1ncc([N+](=O)[O-])s1)c1ccccc1O [tizoxanide, Tizoxanide]",–,enhances,enhances,enhanced,enhanced
